Measured values reported in patent US6133294A (priority 1999, dated 2000).

What was measured:
Format in all cases: in vivo
[1] = system: Puccinia recondita; assay: Brown rust (Puccinia recondita--PUCCRT); conditions: Puccinia recondita; wheat (cultivar Monon), 100 ppm spray to run off, inoculated after 24 hours, 1DP; read-out: control of plant disease, PUCCRT 1DP
Experimental: (§1) Compound Formulation: Compound formulation was accomplished by dissolving technical materials in acetone, with serial dilutions then made in acetone to obtain desired rates. Final treatment volumes were obtained by adding nine volumes 0.05% aqueous Tween-20 or Triton X-100, depending upon the pathogen.
(§2) Brown rust (Puccinia recondita--PUCCRT): Wheat (cultivar Monon) was grown from seed in a soilless peat-based potting mixture (Metromix) until the seedlings were 1-2). These plants were then sprayed to run off with the test compound at a rate of 100 ppm. After 24 hours the test plants were inoculated with an aqueous spore suspension of Puccinia recondita. The plants were then transferred to the greenhouse until disease developed on the untreated control plants.
(§3) the following table presents the activity of typical compounds of the present invention when evaluated in these experiments. The effectiveness of the test compounds in controlling disease was rated using the following scale: […]

[2] = system: Phytophthora infestans; assay: whole plant or invertebrate; conditions: Phytophthora infestans, 24 h, read-out: control of plant disease, PHYTIN 1DP
[3] = system: Erysiphe graminis; assay: Powdery Mildew of Wheat (Erysiphe graminis--ERYSGT); conditions: Blumeria graminis; wheat (cultivar Monon), 100 ppm spray to run off, inoculated after 24 hours, 1DP; read-out: control of plant disease, ERYSGT 1DP
Experimental: as §1
Powdery Mildew of Wheat (Erysiphe graminis--ERYSGT): Wheat (cultivar Monon) was grown in a soilless peat-based potting mixture (Metromix) until the seedlings were 1-2 leaf (BBCH 12). These plants were then sprayed to run off with the test compound at a rate of 100 ppm. After 24 hours the test plants were inoculated with Erysiphe graminis by dusting spores from stock plants onto the test plants. The plants were then transferred to the greenhouse until disease developed on the untreated control plants.
as §3

[4] = system: Leptosphaeria nodorum; assay: Glume blotch of wheat (Leptosphaeria nodorum--LEPTNO); conditions: Parastagonospora nodorum; wheat (cultivar Monon), 100 ppm spray to run off, inoculated after 24 hours, 1DP; read-out: control of plant disease, LEPTNO 1DP
Experimental: as §1
as §2, with “Glume blotch of wheat (Leptosphaeria nodorum--LEPTNO):” for “Brown rust (Puccinia recondita--PUCCRT):”, “1-2 leaf (BBCH 12).” for “1-2).”, “Leptosphaeria nodorum.” for “Puccinia recondita.”
as §3

Row | SMILES | pest or weed control at 100 ppm [1] | pest or weed control at 100 ppm [2] | pest or weed control at 100 ppm [3] | pest or weed control at 100 ppm [4]
1 | CNC(=O)C(=NOC)c1ccccc1COc1ccc(-c2nc(C3CCCCC3)no2)cn1 [Example 73] | 75 to 100% | 25 to 74% | 75 to 100% | 0 to 24%
2 | CNC(=O)C(=NOC)c1ccccc1COc1ncc(-c2nc(-c3ccccc3)no2)cc1Cl [Example 48] | 75 to 100% | 75 to 100% | 75 to 100% | 25 to 74%
3 | CCc1noc(-c2cnc(OCc3ccccc3C(=NOC)C(=O)OC)c(Cl)c2)n1 [Example 101] | 75 to 100% | 75 to 100% | 75 to 100% | 25 to 74%
4 | CNC(=O)C(=NOC)c1ccccc1COc1ncc(-c2noc(-c3ccccc3)n2)cc1Cl [Example 7] | 75 to 100% | 75 to 100% | 75 to 100% | 75 to 100%
5 | CCCc1noc(-c2cnc(OCc3ccccc3C(=NOC)C(=O)NC)c(Cl)c2)n1 [Example 78] | 75 to 100% | 0 to 24% | 75 to 100% | 75 to 100%
6 | CNC(=O)C(=NOC)c1ccccc1COc1ncc(-c2cc(C(C)(C)C)on2)cc1Cl [Example 41] | 75 to 100% | 0 to 24% | 75 to 100% | 75 to 100%
7 | CCCCC(CC)c1nc(-c2cnc(OCc3ccccc3C(=NOC)C(=O)NC)c(Cl)c2)no1 (stereo not shown) [Example 14] | 75 to 100% | 0 to 24% | 75 to 100% | 75 to 100%
8 | CNC(=O)C(=NOC)c1ccccc1COc1ccc(-c2nc(CC(C)C)no2)cn1 [Example 75] | 75 to 100% | 0 to 24% | 75 to 100% | 25 to 74%
9 | CNC(=O)C(=NOC)c1ccccc1COc1ncc(-c2noc(-c3ccco3)n2)cc1Cl [Example 18] | 75 to 100% | 75 to 100% | 25 to 74% | 75 to 100%
10 | CNC(=O)C(=NOC)c1ccccc1COc1ncc(-c2noc(CCCl)n2)cc1Cl [Example 26] | 75 to 100% | 75 to 100% | 75 to 100% | 75 to 100%
11 | CNC(=O)C(=NOC)c1ccccc1COc1cccc(-c2nc(C(F)(F)F)no2)n1 [Example 89] | 75 to 100% | 75 to 100% | 0 to 24% | 0 to 24%
12 | CCc1noc(-c2nc(OCc3ccccc3C(=NOC)C(=O)NC)ccc2Cl)n1 [Example 81] | 75 to 100% | 25 to 74% | 75 to 100% | 25 to 74%
13 | CNC(=O)C(=NOC)c1ccccc1COc1ncc(-c2nc(C(C)(C)C)no2)cc1Cl [Example 47, Benzeneacetamide, 2-[[[3-chloro-5-(3-t-butyl-1,2,4-oxadiazol-5-yl)-2-pyridinyl]oxy]methyl]-α-(methoxyimino)-N-methyl-] | 75 to 100% | 0 to 24% | 75 to 100% | 75 to 100%
14 | CNC(=O)C(=NOC)c1ccccc1COc1ccc(-c2cc(C(C)C)on2)cn1 [Example 42] | 75 to 100% | 75 to 100% | 75 to 100% | 0 to 24%
15 | CNC(=O)C(=NOC)c1ccccc1COc1ncc(-c2noc(-c3cccs3)n2)cc1Cl [Example 20] | 75 to 100% | 75 to 100% | 75 to 100% | 0 to 24%
16 | CNC(=O)C(=NOC)c1ccccc1COc1ncc(-c2cc(C(C)C)on2)cc1Cl [Example 38] | 75 to 100% | 0 to 24% | 75 to 100% | 75 to 100%
